Test results reported in PMC10606834, “Is the Neuropeptide PEN a Ligand of GPR83?” (International Journal of Molecular Sciences, 2023).

Columns and labels:
[1] = test system: GPR83 and GPR83del (HEK293 and U2OS clones; wild-type cells as comparison); assay: Ligand-dependent cAMP formation; format: cell-based, human; settings: 1 µM PEN or 50 µM forskolin, GPR83-overexpressing clones and wild-type HEK293 and U2OS cells, 10 min incubation, LANCE Ultra cAMP kit, TR-FRET competition, duplicate
Method: Production of cyclic adenosine monophosphate (cAMP) is a hallmark of GPCRs signaling via the Gs-induced pathway. To investigate the potential of PEN to stimulate cAMP production mediated by GPR83, levels of the second messenger were determined after incubation with PEN of various GPR83-overexpressing clones as well as wild-type HEK293 and U2OS cells.
Figure 3 Analysis of ligand-dependent, GPR83-mediated cAMP production. (A) Wild-type HEK293 and U2OS cells as well as various clones with confirmed overexpression of either GPR83 or the deletion variant GPR83del (both ± HA tag) were incubated with either buffer, 1 µM PEN, or 50 µM forskolin. (B) Selected GPR83-overexpressing HEK293 clones were assayed for cAMP production using different concentrations of PEN. (C) Selected GPR83-overexpressing U2OS clones were assayed for cAMP production using different concentrations of PEN.
To measure intracellular cAMP production, the LANCE Ultra cAMP kit (Perkin Elmer) was used according to the manufacturer’s instructions. The day before the experiment, cells were seeded onto a 96-well plate with approximately 80% confluence. After 16–24 h, the medium was removed, and 100 μL/well of serum-free medium was added, followed by a 3 h incubation. Thereafter, medium was removed, and 40 μL of ligand dissolved in cAMP stimulation buffer was pipetted onto cells, then incubated for 10 min. The ligands used were pipetted in duplicate. For concentration–response curves, serial dilutions were carried out from the stock solutions of 1 mM to create a concentration range from 1 µM to 30 pM. As controls, 4 wells were treated with buffer only (negative control) and 4 wells with 50 μM forskolin (positive control). After a 10 min incubation, 10 μL of a 0.5% Triton-X 100 solution in PBS was added to each well. To lyse cells, the plate was shaken on a Vibramax 100 Shaker (Heidolph, Kelheim, Germany) (750 rpm) at room temperature for 10 min. A 10 μL volume of the cell lysates were transferred into a white 384 well plate (ProxiPlate, PerkinElmer). A 5 μL volume of the Europium-cAMP tracer (1 to 50 dilution of Eu-tracer stock in cAMP detection buffer) was added to each well. Next, 5 μL of the ULight-anti-cAMP solution (1 to 150 dilution of ULight-tracer stock in cAMP detection buffer) was added to each well. After a 1 h incubation period at room temperature in the dark, the TR-FRET signal was measured using an EnVision 2103 Multilabel Reader (Perkin Elmer).

[2] = test system: GPR83 and GPR83del, with or without HA tag (HEK293 cells; wild-type HEK293 as comparison); assay: Competitive radioligand binding assay, GPR83; set-up: species or system human; settings: pH 7.4, 2 h; for radioligand binding signal: 100,000 cpm 125I-labelled peptide, wild-type HEK293 and HEK293 expressing full-length or deletion variant GPR83, with or without HA tag
Text: One of the most proven methods for quantitatively analyzing the interaction of biomolecules is the competitive radioligand binding assay. […] To safeguard against possible interference of the added Tyr with ligand–receptor binding, two peptides were created and are as follows: one with the Tyr on the aminoterminal end (Tyr-PEN), and the other with Tyr added on the carboxyterminus (PEN-Tyr). Radiolabeled ^125I-PEN-Tyr and ^125I-Tyr-PEN were then used on wild-type HEK293 cells and HEK293 cells expressing various forms of GPR83 (full-length or deletion variant, with or without HA tag) in competition with different concentrations of natural PEN or Tyr-PEN, ranging from 1 pM to 1 µM.
Figure 5 HEK293 wild-type cells and HEK293 cells overexpressing various forms of GPR83 were used in radioligand binding assays with two different radioactively labeled PEN peptides: [^125I]-Tyr-PEN or [^125I]-PEN-Tyr. (A) Radioligand [^125I]-PEN-Tyr in competition with unlabeled wild-type PEN. (B) Radioligand [^125I]-Tyr-PEN in competition with unlabeled wild-type PEN. (C) Radioligand [^125I]-PEN-Tyr in competition with unlabeled wild-type PEN. (D) Radioligand [^125I]-Tyr-PEN in competition with Tyr-PEN. […]
Two variants of human PENs were utilized for radioiodination in this study: one with a tyrosine added at the aminoterminal end (Tyr-PEN: […]-NH2), and one with an additional tyrosine attached to the carboxyterminal end (PEN-Tyr: […]-NH2). Both were labelled with ^125I using the chloramine-T method. Chloramine-T and sodium metabisulfite solutions were freshly prepared in water. For labelling, 10 µL of peptide (stock 1 mM) with 15 µL of sodium phosphate buffer (0.5 M, pH 7.6) was mixed with 37 MBq carrier-free Na^125I (NEZ033L010MC, Perkin Elmer, Waltham, MA, USA). A 4 μL volume of chloramine T (1 mg/mL) was added to start the reaction, and after 30 s, 4 μL sodium metabisulfite (2 mg/mL) was added to stop the iodination. The labeled radioactive peptide was separated from unlabeled peptide with HPLC purification (Agilent ZORBAX 300 Extend-C18 column) using a gradient from 20–50% acetonitrile (+0.1% TFA) against water (+0.1% TFA) for 20 min. To determine the retention time of the radioactive peptide, 1–2 µL of the reaction mixture was analyzed before the purification run. The fraction containing the radiolabeled peptide peak was then collected, diluted with binding buffer to prevent radioautolysis, aliquoted, and stored at −80 °C.
4.10. Radioligand Binding Assay
For competitive radioligand binding assay, approximately 50,000 cells/well were seeded in a 96-well plate incubated overnight at 37 °C. Next day, cells were incubated in binding buffer (50 mM HEPES pH 7.4, 5 mM MgCl2, 1 mM CaCl2, 0.5% BSA, cOmplete protease inhibitors) containing 100,000 counts per minute of ^125I-labelled peptide, with increasing concentrations of unlabeled peptide. After 2 h of incubation, cells were washed for 2–3 times with ice-cold washing buffer (50 mM Tris-HCl, pH 7.4, 125 mM NaCl, 0.05% BSA) and lysed with 1 N NaOH (80 µL/well). The lysed cells were transferred to vials and measured in a gamma counter (Wallac 1470 Wizard, Perkin Elmer, Waltham, MA, USA). Obtained cpm values were plotted with GraphPad Prism 7, and the data were fitted using nonlinear regression (one site—fit Ki, one site—fit logIC50).

[3] = test system: ERK1/2 phosphorylation in HEK293 cells overexpressing GPR83 or GPR83del; assay: ERK1/2 phosphorylation (immunoblot), GPR83 cells; format: cell-based, human; settings: 15 min; for phosphorylation of ERK1/2: 10 µM PEN #1, 100 ng/mL EGF or 200 nM PMA, HEK293 overexpressing GPR83 or GPR83del as well as wild-type HEK293, n = 2 independent experiments
Text: Apart from G protein-mediated second messenger signaling via Ca^2+ and cAMP, GPCR stimulation may also lead to activation of β-arrestin and phosphorylation of extracellular signal-regulated kinases 1/2 (ERK1/2). Immunoblot analysis was employed to investigate ligand-dependent phosphorylation of ERK1/2 in HEK293 cells overexpressing GPR83 or the deletion variant GPR83del as well as in wild-type HEK293 cells.
Figure 4 Ligand-dependent phosphorylation of ERK1/2 and β-arrestin (TANGO) assay. (A) Immunoblot detection of phosphorylated (upper blot) and total (lower blot) ERK1/2 in lysates of HEK293 wild-type cells and in HEK293 cells overexpressing GPR83 or GPR83del. (B) Quantification (mean ± SD of n = 2 independent experiments) of chemiluminescent readout of the immunoblots shown in (A). (C) TANGO assay for ligand-induced β-arrestin activity in HTLA cells overexpressing GPR83 (relative light units, RLU). (D) TANGO assay for ligand-induced β-arrestin activity in HTLA cells overexpressing bradykinin receptor BDKBR2.
4.7. ERK1/2 Phosphorylation Assay
Effects of GPCR ligands on MAPK signaling were assessed with Western blot analysis of lysates from stimulated cells. The ERK1/2 activation assay was performed as described before. Briefly, 50,000 cells per well were seeded onto adherent 6-well plates and cultured until cells were 80% confluent. After incubation with ligands (10 µM PEN #1 and 100 ng/mL EGF or 200 nM PMA in 0.1% FCS/DMEM) for 15 min, cells were lysed using 200 µL/well cell lysis buffer (100 mM Tris-HCl pH 8.8, 1% SDS) and protease inhibitors (cOmplete, Roche, Basel, Switzerland) on ice for one hour. Immunolabeling was realized using the rabbit monoclonal primary antibody anti-phospho-ERK1/2 Thr^202/Tyr^204 (#4370, Cell Signaling Technologies, Danvers, MA, USA, 1:2000), or anti-total ERK1/2 (#05-1152; Millipore, Burlington, VT, USA; 1:2000), respectively. Blots were analyzed using densitometric quantification using Image Lab Software v4.1 (Bio-Rad).

Compound	phosphorylation of ERK1/2 [3]	radioligand binding signal [2]	also measured
C=C[C@@]1(C)CC(=O)[C@]2(O)[C@@]3(C)[C@@H](O)CCC(C)(C)[C@@H]3[C@H](O)[C@H](OC(C)=O)[C@@]2(C)O1 [forskolin, reference compound]	–	–	cAMP levels [1]: strongly increased cAMP levels; cAMP levels ([1]; listed as Forskolin): strong induction of intracellular cAMP
YAADHDVGSELPPEGVLGALLRV-NH2 [Tyr-PEN, human PEN with a tyrosine added at the aminoterminal end]	–	–	concentration-dependent displacement of radioligand ([2]; unlabeled peptide 1 pM to 1 µM versus 125I-PEN-Tyr or 125I-Tyr-PEN, HEK293 wild-type and GPR83 / GPR83del with or without HA tag): neither of these different assay conditions led to a PEN-GPR83 binding signal above background or a concentration-dependent displacement of the radioligand
EGF: positive control, epithelial growth factor (as printed) (NSDSECPLSHDGYCLHDGVCMYIEALDKYACNCVVGYIGERCQYRDLKWWELR; Epidermal growth factor; UniProt P01133 971-1023, looked up)	substantially induced phosphorylation of ERK1/2	–	phosphorylation of ERK1/2, rank of response ([3]; 100 ng/mL EGF, compared with PEN and PMA, n = 2): strongest response
CCCCCCCCCCCCCC(=O)O[C@@H]1[C@@H](C)[C@@]2(O)[C@@H](C=C(CO)C[C@]3(O)C(=O)C(C)=C[C@@H]23)[C@@H]2C(C)(C)[C@]12OC(C)=O [PMA, phorbol-12-myristate-13-acetate, reference compound]	substantially induced phosphorylation of ERK1/2	–	–
^125I-Tyr-PEN: Tyr-PEN labelled with 125I using the chloramine-T method	–	neither of these different assay conditions led to a PEN-GPR83 binding signal above background	–
^125I-PEN-Tyr: PEN-Tyr labelled with 125I using the chloramine-T method	–	neither of these different assay conditions led to a PEN-GPR83 binding signal above background	–
